Measurements: patent US9604947B2, “Substituted 5-imino-1,2,4-thiadiazoles that can be used to treat neurodegenerative diseases” (CONSEJO SUPERIOR DE INVESTIGACIONES CIENTIFICAS (CSIC), priority 2009, dated 2017)
Where a name gives a salt, the structure may show the parent alone. Read-outs that look alike come from different tables or passages of the source.

Key:
[1] = PAMPA-BBB parallel artificial membrane permeability assay (porcine polar brain lipid)
Method: Ten commercial reference drugs, phosphate buffer saline solution at pH 7.4 (PBS), DMSO and dodecane were purchased from Sigma, Acros organics, Aldrich and Fluka. […] Filter PDVF membrane units (diameter 30 mm, pore size 0.45 μm) from Symta were used to filtered the samples. A 96-well plate UV reader (Thermoscientific, Multiskan spectrum) was used for the UV measurements. […] These solutions were filtered. The acceptor 96-well microplate was filled with 180 μL of PBS:DMSO (95:5). The donor 96-well plate was coated with 4 μL of porcine brain lipid in dodecane (20 mg mL^−1) and after 5 minutes, 180 μL of each compound solution was added. 1-2 mg of every compound to be determined their ability to pass the BBB were dissolved in 250 μL of DMSO and 4750 μL of PBS pH 7.4 buffer, filtered and then added to the donor 96-well plate. Then the donor plate was carefully put on the acceptor plate to form a “sandwich”, which was left undisturbed for 4 h at 25° C.
During this time the compounds diffused from the donor plate through the brain lipid membrane into the acceptor plate. After incubation, the donor plate was removed. The concentration of compounds and commercial drugs in the acceptor and the donor wells was determined by UV plate reader. Every sample was analyzed from three to five wavelengths, in 3 wells and in at least three independent runs. […] 11 quality control compounds (previously mentioned) of known BBB permeability were included in each experiment to validate the analysis set.

PDE7A1 = molecular target: T1, PDE7A1 (Homo sapiens, UniProt Q13946); experiment: Determination of PDE7 inhibition (SPA, [3H]cAMP); assay type: biochemical; details: for IC50: read-out: IC50 (PDE7A); for inhibition at 10 µM: read-out: % inhibition of PDE7A at 10 μM, hydrobromides
T1 construct: purchased Calbiochem 524751
T1 sequence (Q13946 whole entry): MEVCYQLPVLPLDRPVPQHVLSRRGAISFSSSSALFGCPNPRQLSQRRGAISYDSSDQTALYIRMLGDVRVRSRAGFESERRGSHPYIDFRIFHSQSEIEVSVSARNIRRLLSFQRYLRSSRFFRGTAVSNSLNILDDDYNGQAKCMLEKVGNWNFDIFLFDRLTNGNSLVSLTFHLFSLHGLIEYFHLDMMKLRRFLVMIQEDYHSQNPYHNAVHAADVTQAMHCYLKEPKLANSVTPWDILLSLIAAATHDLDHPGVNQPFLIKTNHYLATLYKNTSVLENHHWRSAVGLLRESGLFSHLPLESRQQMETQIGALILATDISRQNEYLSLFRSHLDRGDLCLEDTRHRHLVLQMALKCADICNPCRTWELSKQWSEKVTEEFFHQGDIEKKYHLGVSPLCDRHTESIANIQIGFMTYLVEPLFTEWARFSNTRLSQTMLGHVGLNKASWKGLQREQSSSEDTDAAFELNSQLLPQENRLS
Method: PDE-7 inhibition was performed with a commercial kit for the determination of phosphodiesterase activity (GE Healthcare Life Sciences, cat#TRKQ7090).
The compounds to be evaluated were incubated (in concentrations between 0.1 nM and 100 μM) in presence of 0.02 U/well of PDE7A1 (Calbiochem cat#524751) and 0.05 μCi of [^3H] cAMP, for 20 min at 30° C. in the assay buffer of kit (total volume=100 μl).
After this time, 50 μl of a suspension of 20 mg/ml microspheres of SPA of Ytrium silicate were added and was maintained under stirring at room temperature for 60 min. Finally, the plate was settled for 20 min and radioactivity was detected in a Microbeta Trilux reader.
In every assay there were included two points without PDE7A1 (blank) and two points with PDE7A1 without inhibitors (control).
Data Analysis: All the compounds were evaluated firstly at the concentration of 10 μM and the percentage of PDE7A1 inhibition was calculated, according to the following formula (cpm=counts per minute): % Inhibition=((cpm control−cpm sample)×100)/(cpm control−cpm blank assay).
For those compounds with % inhibition values above 45% it was calculated its inhibitory potency (IC50) building the dose-response curve.
The data were adjusted with the software Prism v 2.1 (GraphPad Software) using the non lineal fitting.

[2] = 1,2,4-thiadiazoles-5-imino substituted as hydrobromides
[3] = 1,2,4-thiadiazoles-5-imino substituted as hydrochlorides

Compound: CN1C(C(=O)Nc2ccccn2)=C(O)c2ccccc2S1(=O)=O [Piroxicam, reference compound]
- Pe (10^−6 cm s^−1) ([1]; PBS:DMSO (95:5) as solvent, 4 h at 25° C., mean ± SD of at least 3 independent experiments): 2.2 ± 0.9 10^−6 cm s^−1

Compound: Br.OCCN=c1nc(-c2ccccc2)n(-c2ccccc2)s1 [VP-1.15, 5-(2-Hydroxyethylimino)-2,3-diphenyl-2,5-dihydro-1,2,4-thiadiazole hydrobromide]
- Prediction (predictive penetration in the CNS) ([1]; PAMPA): CNS+
- Papp at 4 h ([1]; PAMPA, pH 7.4): 154 ± 20 nm/s
- IC50 (PDE7A1; [2]): 1.11 µM

Compound: O=[N+]([O-])c1ccc(-n2sc(=NCc3cccnc3)nc2-c2ccccc2)cc1 [2-(4-Nitrophenyl)-3-phenyl-5-(3-pyridinylmethylimino)-2,5-dihydro-1,2,4-thiadiazole dihydrobromide]
- IC50 (PDE7A1; [2]): 0.84 µM

Compound: CC(C)NCC(O)COc1ccc(CC(N)=O)cc1 (stereo not drawn) [Atenolol, reference compound]
- Pe (10^−6 cm s^−1) ([1]; pig, PAMPA, 4 h, pH 7.4): 0.8 ± 1.1 10^−6 cm s^−1

Compound: CCOC(=O)CN=c1nc(-c2ccccc2)n(-c2ccccc2)s1 [R1=Ph, R2=Ph, R3=CH2CO2Et (free base), 5-Ethoxycarboximethylimino-2,3-diphenyl-2,5-dihydro-1,2,4-thiadiazole]
- % inhibition of PDE7A at 10 μM (PDE7A1; free bases, at 10 μM): 6%@10

Compound: Br.CCOC(=O)CN=c1nc(-c2ccccc2)n(-c2ccc(OC)cc2)s1 [VP-1.62, 5-Ethoxycarbonylmethylimino-2-(4-methoxyphenyl)-3-phenyl-2,5-dihydro-1,2,4-thiadiazole hydrobromide]
- Prediction (predictive penetration in the CNS) ([1]; PAMPA): CNS+/CNS−
- Papp at 4 h ([1]; PAMPA, pH 7.4): 40 ± 8 nm/s
- IC50 (PDE7A1; [2]): 0.78 µM

Compound: CCCCCN=c1nc(-c2ccc(OC)cc2)n(-c2ccccc2)s1 [3-(4-Methoxyphenyl)-5-pentylimino-2-phenyl-2,5-dihydro-1,2,4-thiadiazole hydrochloride]
- IC50 (PDE7A1; [3]): 3.7 µM

Compound: c1ccc(-n2sc(=NCc3cccnc3)nc2-c2cccc3ccccc23)cc1 [3-(1-Naphthyl)-2-phenyl-5-(3-pyridylmethylimino)-2,5-dihydro-1,2,4-thiadiazole dihydrobromide]
- IC50 (PDE7A1; [2]): 1.08 µM

Compound: c1ccc(N=c2nc(-c3ccccc3)n(-c3ccccc3)s2)cc1 [R1=Ph, R2=Ph, R3=Ph (free base), 2,3-Diphenyl-5-phenylimino-2,5-dihydro-1,2,4-thiadiazole]
- IC50 (PDE7A1; 1,2,4-thiadiazoles-5-imino substituted as free bases): 3.52 µM

Compound: c1ccc(-c2nc(=NCc3cccnc3)sn2-c2cccc3ccccc23)cc1 [2-(1-Naphthyl)-3-phenyl-5-(3-pyridylmethylimino)-2,5-dihydro-1,2,4-thiadiazole dihydrobromide]
- IC50 (PDE7A1; [2]): 0.87 µM

Compound: Br.Br.Cc1nc(=NCc2cccnc2)sn1-c1ccccc1 [VP-2.63, 3-Methyl-2-phenyl-5-(3-pyridylmethylimino)-2,5-dihydro-1,2,4-thiadiazole dihydrobromide]
- Prediction (predictive penetration in the CNS) ([1]; PAMPA): CNS+
- Papp at 4 h ([1]; PAMPA, pH 7.4): 53 ± 9 nm/s
- inhibition at 10 µM (PDE7A1; at 10 μM): 54%

Compound: CCCCCN=c1nc(-c2ccccc2)n(-c2ccccc2)s1 [R1=Ph, R2=Ph, R3=n-Pent (hydrobromide), 5-Pentylimino-2,3-diphenyl-2,5-dihydro-1,2,4-thiadiazole hydrobromide]
- IC50 (PDE7A1; [2]): 1.44 µM

Compound: CN(C)CCCN1c2ccccc2Sc2ccccc21 [Promazine, reference compound]
- Papp at 4 h ([1]; PAMPA, pH 7.4): 97 ± 15 nm/s

Compound: Br.CCOC(=O)CN=c1nc(-c2ccc(OC)cc2)n(-c2ccccc2)s1 [VP-1.65, 5-Ethoxycarbonylmethylimino-3-(4-methoxyphenyl)-2-phenyl-2,5-dihydro-1,2,4-thiadiazole hydrobromide]
- Prediction (predictive penetration in the CNS) ([1]; PAMPA): CNS+/CNS−
- Papp at 4 h ([1]; PAMPA, pH 7.4): 38 ± 2 nm/s
- IC50 (PDE7A1; [2]): 0.89 µM

Compound: c1ccc(-c2nc(=NCCN3CCOCC3)sn2-c2ccccc2)cc1 [5-(2-Morpholinethylimino)-2,3-diphenyl-2,5-dihydro-1,2,4-thiadiazole dihydrobromide]
- IC50 (PDE7A1; [2]): 1.59 µM

Compound: Br.OCCN=c1nc(-c2cccc3ccccc23)n(-c2ccccc2)s1 [VP-2.33, 5-(2-Hydroxyethylimino)-3-(1-naphthyl)-2-phenyl-2,5-dihydro-1,2,4-thiadiazole hydrobromide]
- Papp at 4 h ([1]; PAMPA, pH 7.4): 102 ± 6 nm/s
- Prediction (predictive penetration in the CNS) ([1]; PAMPA-BBB): CNS+
- IC50 (PDE7A1; [2]): 1.24 µM

Compound: Br.Br.COc1ccc(-c2nc(=NCc3cccnc3)sn2-c2ccccc2)cc1 [VP-1.43, 3-(4-Methoxyphenyl)-2-phenyl-5-(3-pyridylmethylimino)-2,5-dihydro-1,2,4-thiadiazole dihydrobromide]
- Prediction (predictive penetration in the CNS) ([1]; PAMPA): CNS+
- Papp at 4 h ([1]; PAMPA, pH 7.4): 44 ± 6 nm/s
- IC50 (PDE7A1; [2]): 0.86 µM

Compound: FC(F)(F)c1ccc(-c2nc(=NCc3cccnc3)sn2-c2ccccc2)cc1 [3-(4-Trifluoromethylphenyl)-2-phenyl-5-(3-pyridylmethylimino)-2,5-dihydro-1,2,4-thiadiazole dihydrobromide]
- inhibition at 10 µM (PDE7A1; at 10 μM): 87%

Compound: CCn1cc(C(=O)O)c(=O)c2cc(F)c(N3CCNCC3)nc21 [Enoxacin, reference compound]
- Pe (10^−6 cm s^−1) ([1]; pig, PAMPA, 4 h, pH 7.4): 0.9 ± 0.5 10^−6 cm s^−1

Compound: COc1ccc(-c2nc(=Nc3ccccc3)sn2-c2ccccc2)cc1 [R1=pOMePh, R2=Ph, R3=Ph (hydrobromide)]
- IC50 (PDE7A1; [2]): 4.36 µM

Compound: Br.COc1ccc(-n2sc(=NCCO)nc2-c2ccccc2)cc1 [VP-1.61, 5-(2-Hydroxyethylimino)-2-(4-methoxyphenyl)-3-phenyl-2,5-dihydro-1,2,4-thiadiazole hydrobromide]
- Prediction (predictive penetration in the CNS) ([1]; PAMPA): CNS+
- Papp at 4 h ([1]; PAMPA, pH 7.4): 137 ± 10 nm/s
- IC50 (PDE7A1; [2]): 1.18 µM

Compound: N=c1nc(-c2ccccc2)n(-c2ccccc2)s1 [R1=Ph, R2=Ph, R3=H (hydrobromide)]
- IC50 (PDE7A1; [2]): 1.02 µM

Compound: CCOC(=O)CN=c1nc(-c2ccccc2)n(-c2ccc([N+](=O)[O-])cc2)s1 [5-Ethoxycarbonylmethylimino-2-(4-nitrophenyl)-3-phenyl-2,5-dihydro-1,2,4-thiadiazole hydrobromide]
- IC50 (PDE7A1; [2]): 0.79 µM

Compound: Br.CCOC(=O)CN=c1nc(-c2ccccc2)n(-c2ccccc2)s1 [VP-1.16, 5-Ethoxycarbonylmethylimino-2,3-diphenyl-2,5-dihydro-1,2,4-thiadiazole hydrobromide]
- Prediction (predictive penetration in the CNS) ([1]; PAMPA): CNS+
- Papp at 4 h ([1]; PAMPA, pH 7.4): 62 ± 4 nm/s
- IC50 (PDE7A1; [2]): 1.13 µM

Compound: CCCCCN=c1nc(-c2ccc(OC)cc2)n(-c2ccccc2)s1 [3-(4-Methoxyphenyl)-5-pentylimino-2-phenyl-2,5-dihydro-1,2,4-thiadiazole hydrobromide]
- IC50 (PDE7A1; [2]): 0.81 µM

Compound: Br.Br.COc1ccc(-n2sc(=NCc3cccnc3)nc2-c2ccccc2)cc1 [VP-1.60, 2-(4-Methoxyphenyl)-3-phenyl-5-(3-pyridinylmethylimino)-2,5-dihydro-1,2,4-thiadiazole dihydrobromide]
- Prediction (predictive penetration in the CNS) ([1]; PAMPA): CNS+
- Papp at 4 h ([1]; PAMPA, pH 7.4): 62 ± 4 nm/s
- IC50 (PDE7A1; [2]): 0.85 µM

Compound: c1ccc(-n2sc(=NCc3cccnc3)nc2-c2cccc3ccccc23)cc1 [3-(1-Naphthyl)-2-phenyl-5-(3-pyridylmethylimino)-2,5-dihydro-1,2,4-thiadiazole hydrochloride]
- IC50 (PDE7A1; [3]): 1.5 µM

Compound: OCCN=c1nc(-c2ccccc2)n(-c2cccc3ccccc23)s1 [5-(2-Hydroxyethylimino)-2-(1-naphthyl)-3-phenyl-2,5-dihydro-1,2,4-thiadiazole hydrobromide]
- IC50 (PDE7A1; [2]): 2.2 µM

Compound: OCCN=c1nc(-c2ccccc2)n(-c2ccccc2)s1 [VP-2.3, 5-(2-Hydroxyethylimino)-2,3-diphenyl-2,5-dihidro-1,2,4-thiadiazole hydrochloride]
- Prediction (predictive penetration in the CNS) ([1]; PAMPA): CNS+
- Papp at 4 h ([1]; PAMPA, pH 7.4): 150 ± 20 nm/s
- IC50 (PDE7A1; [3]): 1.97 µM

Compound: Br.Br.c1ccc(-c2nc(=NCc3cccnc3)sn2-c2ccccc2)cc1 [VP-1.14, 2,3-Diphenyl-5-(3-pyridinylmethylimino)-2,5-dihydro-1,2,4-thiadiazole dihydrobromide]
- Prediction (predictive penetration in the CNS) ([1]; PAMPA): CNS+
- Papp at 4 h ([1]; PAMPA, pH 7.4): 107 ± 3 nm/s
- IC50 (PDE7A1; [2]): 0.38 µM

Compound: c1ccc(N=c2nc(-c3ccccc3)n(-c3ccccc3)s2)cc1 [R1=Ph, R2=Ph, R3=Ph (hydrobromide), 2,3-Diphenyl-5-phenylimino-2,5-dihydro-1,2,4-thiadiazole hydrobromide]
- IC50 (PDE7A1; [2]): 3.03 µM

Compound: c1ccc(-c2nc(=NC3CCCCC3)sn2-c2ccccc2)cc1 [R1=Ph, R2=Ph, R3=Cy (hydrobromide)]
- IC50 (PDE7A1; [2]): 1.64 µM
